How the values were obtained:
Histone deacetylase = biological target: T1, Histone deacetylase (Plasmodium falciparum, UniProt Q9XYC7); experiment: Inhibition of recombinant Plasmodium falciparum HDAC1 using HDAC substrate-3 after 30 mins by fluorescence assay
T1 sequence (Q9XYC7 whole entry): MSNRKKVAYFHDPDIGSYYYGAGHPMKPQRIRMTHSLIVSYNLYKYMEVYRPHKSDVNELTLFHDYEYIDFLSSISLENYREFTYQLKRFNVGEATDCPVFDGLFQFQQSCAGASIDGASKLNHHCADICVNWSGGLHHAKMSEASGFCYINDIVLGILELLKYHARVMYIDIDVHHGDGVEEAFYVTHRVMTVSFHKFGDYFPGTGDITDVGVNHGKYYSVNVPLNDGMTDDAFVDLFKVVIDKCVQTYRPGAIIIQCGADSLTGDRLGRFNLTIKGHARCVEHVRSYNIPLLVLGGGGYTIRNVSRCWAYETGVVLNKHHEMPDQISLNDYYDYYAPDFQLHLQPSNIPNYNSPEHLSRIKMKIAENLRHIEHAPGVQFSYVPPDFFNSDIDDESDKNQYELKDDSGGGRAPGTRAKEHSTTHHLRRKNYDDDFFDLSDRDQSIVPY

[1] = Selectivity index, ratio of IC50 for African green monkey Vero cells to IC50 for Plasmodium falciparum D6; format: toxicity; conditions: read-out: Ratio IC50
Plasmodium falciparum [2] = experiment: Antimalarial activity against Plasmodium falciparum using Malstat reagent by parasite lactate dehydrogenase assay; format: functional, organism-based
[3] = Selectivity index, ratio of IC50 for African green monkey Vero cells to IC50 for Plasmodium falciparum W2; format: toxicity; conditions: read-out: Ratio IC50
[4] = biological target: T2, Putative silent information regulator 2 (Leishmania infantum, UniProt A0A6L0XH39); experiment: Inhibition of N-terminal His6-tagged recombinant Leishmania infantum SIR2RP1 expressed in Escherichia coli in presence of NAD+ by fluorimetric method
T2 sequence (A0A6L0XH39 whole entry): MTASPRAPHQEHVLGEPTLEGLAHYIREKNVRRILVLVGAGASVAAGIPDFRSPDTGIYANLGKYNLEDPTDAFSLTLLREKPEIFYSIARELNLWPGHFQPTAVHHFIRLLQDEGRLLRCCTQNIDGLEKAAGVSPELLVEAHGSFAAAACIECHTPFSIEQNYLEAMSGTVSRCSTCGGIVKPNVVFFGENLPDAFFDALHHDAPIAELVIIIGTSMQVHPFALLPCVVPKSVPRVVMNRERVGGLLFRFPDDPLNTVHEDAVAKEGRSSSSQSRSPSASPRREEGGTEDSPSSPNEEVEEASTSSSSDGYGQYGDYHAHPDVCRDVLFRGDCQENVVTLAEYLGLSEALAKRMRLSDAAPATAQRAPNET

Leishmania infantum [5] = experiment: Antileishmanial activity against amastigote stage of Leishmania infantum infected in PMA-differentiated human THP-1 cells after 3 days by luciferase assay; format: functional, organism-based; conditions: THP-1, 72 h
Schistosoma mansoni [6] = experiment: Antiparasitic activity against Schistosoma mansoni assessed as pairing at 20 uM after 6 days relative to control; format: functional
Schistosoma mansoni [7] = experiment: Antiparasitic activity against Schistosoma mansoni assessed cell viability at 20 uM after 5 days; format: functional
Schistosoma mansoni [8] = experiment: Antiparasitic activity against Schistosoma mansoni assessed as cumulative egg reduction at 20 uM; format: functional; set-up: scale not given: the % may be the effect or the level left
Plasmodium falciparum [9] = experiment: Antiplasmodial activity against Plasmodium falciparum 3D7 assessed as growth inhibition after 24 hrs by measuring incorporation of [3H]-hypoxanthine by liquid scintillation counting method; format: functional, organism-based
[10] = Inhibition of Plasmodium falciparum Sir2A
Trypanosoma cruzi = experiment: Antitrypanosomal activity against epimastigotes of Trypanosoma cruzi […] by Alamar Blue assay; format: functional, organism-based
Leishmania infantum [11] = experiment: Antileishmanial activity against amastigote stage of Leishmania infantum MHOM/MA671TMAP263 expressing luciferase after 72 hrs by luciferase assay; format: functional, organism-based; conditions: MHOM/MA671TMAP263, 72 h
Plasmodium falciparum [12] = experiment: Gametocytocidal activity against transgenic GFP-fused Plasmodium falciparum NF54 […] gametocytes after 24 hrs by MitoTracker Red CM-H2XRos late-stage gametocyte imaging-based viability assay; format: functional, organism-based; conditions: NF54, 24 h
NFF = experiment: Cytotoxicity against human NFF cells after 72 hrs by SRB assay; format: cell-based
[13] = Selectivity index, ratio of IC50 for human NFF cells to IC50 for Plasmodium falciparum; format: toxicity; conditions: read-out: Ratio IC50
[14] = Selectivity index, ratio of IC50 for human NFF cells to IC50 for transgenic GFP-fused Plasmodium falciparum NF54 […] gametocyte; format: toxicity; conditions: read-out: Ratio IC50
Plasmodium falciparum [15] = experiment: Antimalarial activity against Plasmodium falciparum infected in type O-positive erythrocytes by [3H]-hypoxanthine incorporation assay; format: functional, organism-based
Plasmodium falciparum [16] = experiment: Antimalarial activity against Plasmodium falciparum; format: functional, organism-based
Plasmodium falciparum [17] = experiment: Antimalarial activity against Plasmodium falciparum infected in human erythrocytes preincubated for 48 hrs followed by [3H]-hypoxanthine addition measured after 24 hrs by scintillation counting assay; format: functional, organism-based
[18] = tested on: Trypanosoma brucei brucei; experiment: Antitrypanosomal activity against Trypanosoma brucei brucei measured after 22 hrs by fluorescence-based Alamar blue viability assay; format: functional, organism-based
HEK293 = experiment: Cytotoxicity against HEK293 cells after 48 hrs by resazurin assay; format: cell-based; conditions: Homo sapiens, HEK293, 48 h
[19] = biological target: T3, Histone deacetylase (Plasmodium falciparum) (UniProt Q9XYC7); experiment: Inhibition of recombinant HDAC1 in recombinant Plasmodium falciparum at 1 uM using Ac-RGK(Ac)-AMC fluorogenic peptide as substrate preincubated for 1 hr followed by substrate addition measured after 10 min by fluorescence assay
T3 sequence (whole entry): T1 sequence (Q9XYC7 whole entry)

Toxoplasma gondii = experiment: Antiparasitic activity against tachyzoite stage of Toxoplasma gondii; format: functional, organism-based
Trypanosoma brucei [20] = experiment: Inhibition of recombinant Trypanosoma brucei HDAC1 at 5 uM after 30 mins
Trypanosoma brucei [21] = experiment: Inhibition of recombinant Trypanosoma brucei HDAC3 at 5 uM after 30 mins

CC[C@H]1OC(=O)[C@H](C)[C@@H](O[C@H]2C[C@@](C)(OC)[C@@H](O)[C@H](C)O2)[C@H](C)[C@@H](O[C@@H]2O[C@H](C)C[C@H](N(C)Cc3ccc(-c4cn(CCCCCCC(=O)NO)nn4)cc3)[C@H]2O)[C@](C)(O)C[C@@H](C)CN(C)[C@H](C)[C@@H](O)[C@]1(C)O
IC50 (Histone deacetylase): 0.029 µM
selectivity ratio [1]: > 20.7
IC50 (Plasmodium falciparum [2]): 0.094 to 0.226 µM
selectivity ratio [3]: > 47.6

O=C1c2cccc3cccc(c23)C(=O)N1CCNCCCCCNCCN1C(=O)c2cccc3cccc(c23)C1=O
IC50 [4]: 5.7 to 54.7 µM
IC50 (Leishmania infantum [5]): 1 to 10 µM

O=C1c2cccc3cccc(c23)C(=O)N1CCNCCCCCCCCCCNCCN1C(=O)c2cccc3cccc(c23)C1=O
IC50 [4]: 5.7 to 54.7 µM
IC50 (Leishmania infantum [5]): 1 to 10 µM

O=C1NC(=S)NC(=O)C1=Cc1cc2ccccc2[nH]1
Activity (Schistosoma mansoni [6]): 100%
Activity (Schistosoma mansoni [7]): 100%
Activity (Schistosoma mansoni [8]): 65%

O=C1c2cccc3cccc(c23)C(=O)N1CCNCCCCCCNCCN1C(=O)c2cccc3cccc(c23)C1=O
IC50 [4]: 5.7 to 54.7 µM
IC50 (Leishmania infantum [5]): 1 to 10 µM

NC(=O)c1cccnc1 [NIACINAMIDE]
IC50 [4]: 40 µM
IC50 (Plasmodium falciparum [9]): 9900 µM
IC50 [10]: 51 µM
EC50 (Trypanosoma cruzi): 25800 µM
IC50 (Leishmania infantum [11]): 5500 to 13900 µM

O=C1c2cccc3cccc(c23)C(=O)N1CCNCCCCCCCNCCN1C(=O)c2cccc3cccc(c23)C1=O
IC50 [4]: 5.7 to 54.7 µM
IC50 (Leishmania infantum [5]): 1 to 10 µM

O=C1c2cccc3cccc(c23)C(=O)N1CCNCCCCNCCN1C(=O)c2cccc3cccc(c23)C1=O
IC50 [4]: 5.7 to 54.7 µM
IC50 (Leishmania infantum [5]): 1 to 10 µM

O=C(CCCCCONC(=O)Nc1cccc2ccccc12)NO
IC50 (Plasmodium falciparum [12]): 2.12 to 2.25 µM
IC50 (NFF): 19.5 µM
selectivity ratio [13]: 36 to 78
selectivity ratio [14]: 9
IC50 (Plasmodium falciparum [15]): 0.25 to 0.32 µM

Oc1ccc(/C=C/c2cc(O)cc(O)c2)cc1 [RESVERATROL]
IC50 (Plasmodium falciparum [16]): 60 µM

O=C1c2cccc3cccc(c23)C(=O)N1CCNCCCCCCCCNCCN1C(=O)c2cccc3cccc(c23)C1=O
IC50 [4]: 5.7 to 54.7 µM
IC50 (Leishmania infantum [5]): 1 to 10 µM

O=C1c2cccc3cccc(c23)C(=O)N1CCNCCCCNCCCNCCN1C(=O)c2cccc3cccc(c23)C1=O
IC50 [4]: 5.7 to 54.7 µM
IC50 (Leishmania infantum [5]): 1 to 10 µM

O=C(/C=C/c1cccc(S(=O)(=O)Nc2ccccc2)c1)NO [BELINOSTAT]
IC50 (NFF): 1.4 to 2.4 µM
IC50 (Plasmodium falciparum [17]): 0.06 to 0.13 µM
IC50 [18]: 2.6 µM
IC50 (HEK293): 1.4 to 2.4 µM
inhibition [19]: 78.5%

Cc1[nH]c2ccccc2c1CCNCc1ccc(/C=C/C(=O)NO)cc1 [PANOBINOSTAT]
IC50 (NFF): 0.07 to 0.18 µM
IC50 (Plasmodium falciparum [17]): 0.01 to 0.03 µM
IC50 [18]: 1.69 µM
IC50 (HEK293): 0.07 to 0.18 µM
inhibition [19]: 100%

CCCC(CCC)C(=O)O [VALPROIC ACID]
IC50 (Plasmodium falciparum [16]): > 100 µM

O=C1c2cccc3cccc(c23)C(=O)N1CCNCCNCCNCCN1C(=O)c2cccc3cccc(c23)C1=O
IC50 [4]: 5.7 to 54.7 µM
IC50 (Leishmania infantum [5]): 1 to 10 µM

O=C(CCCCCN1C(=O)c2cccc3cccc(c23)C1=O)NO
IC50 (Toxoplasma gondii): 0.039 µM

O=C1CCc2c(ccc3ccccc23)O1 [SPLITOMICIN]
IC50 (Plasmodium falciparum [9]): > 10 µM
IC50 [10]: > 400 µM

Cc1ccc(C(=O)Nc2ccc(S(=O)(=O)O)c3cc(S(=O)(=O)O)cc(S(=O)(=O)O)c23)cc1NC(=O)c1cccc(NC(=O)Nc2cccc(C(=O)Nc3cc(C(=O)Nc4ccc(S(=O)(=O)O)c5cc(S(=O)(=O)O)cc(S(=O)(=O)O)c45)ccc3C)c2)c1 [SURAMIN]
IC50 [4]: 7 µM

O=C1c2cccc3cccc(c23)C(=O)N1CCNCCCNCCCCNCCCNCCN1C(=O)c2cccc3cccc(c23)C1=O
IC50 [4]: 5.7 to 54.7 µM
IC50 (Leishmania infantum [5]): 1 to 10 µM

O=C(CCCCCCC(=O)NO)NO [SUBEROHYDROXAMIC ACID]
IC50 (Plasmodium falciparum [17]): 0.8 to 2.3 µM
IC50 (Toxoplasma gondii): 0.213 µM

O=C1c2cccc3cccc(c23)C(=O)N1CCNCCCCCCCCCCCCNCCN1C(=O)c2cccc3cccc(c23)C1=O
IC50 [4]: 5.7 to 54.7 µM
IC50 (Leishmania infantum [5]): 1 to 10 µM

O=C1c2cccc3cccc(c23)C(=O)N1CCNCCCCCCCCCNCCN1C(=O)c2cccc3cccc(c23)C1=O
IC50 [4]: 5.7 to 54.7 µM
IC50 (Leishmania infantum [5]): 1 to 10 µM

O=C(/C=C/c1ccc(C(=O)NO)cc1)NO
IC50 (Plasmodium falciparum [17]): 0.9 to 1.1 µM

O=C1c2cccc3cccc(c23)C(=O)N1CCNCCCNCCCNCCN1C(=O)c2cccc3cccc(c23)C1=O
IC50 [4]: 5.7 to 54.7 µM
IC50 (Leishmania infantum [5]): 1 to 10 µM

CC(/C=C/C(=O)NO)=C\[C@@H](C)C(=O)c1ccc(N(C)C)cc1 [TRICHOSTATIN]
inhibition (Trypanosoma brucei [20]): > 50%
inhibition (Trypanosoma brucei [21]): > 50%
IC50 [18]: 7 µM
IC50 (Toxoplasma gondii): 0.041 µM

Source: ChEMBL document CHEMBL4184137, “Lysine Deacetylase Inhibitors in Parasites: Past, Present, and Future Perspectives” (J Med Chem, 2017)
